In patent publication US11707453B2, “Treatment of unipolar depressive disorder” (OXFORD UNIVERSITY INNOVATION LIMITED, priority 2017, dated 2023):

Legend:
5-HT2A receptor [1] = assay: DOI-evoked head-twitch (HTR) and ear scratch (ESR) behavioural responses; assay type: in vivo, mice; settings: for DOI-evoked ESR / DOI-evoked HTR: vs DOI alone
5-HT2A receptor [2] = assay: DOI-evoked IEG (c-fos, Arc, egr2 mRNA) expression, in situ hybridization; assay type: in vivo, mice
Description: In separate molecular studies, central 5-HT2A receptor function was assessed by measuring DOI-induced mRNA expression of the IEG c-fos, as well as complementary IEGs Arc and egr2 in cortical regions (Gonzalez-Maeso et al., 2007; Jennings et al., 2008). The challenge dose of DOI (2 mg kg^−1 i.p.) was selected on the basis of preliminary dose response studies and evidence that DOI-evoked IEG expression was blocked by a selective 5-HT2A receptor antagonist (Jennings et al., 2008).
Mice were randomly allocated to one of the following treatments (6 mice per group); i) acute ebselen (10 mg kg^−1 i.p.) or vehicle, ii) repeated lithium (3 days; 10 mmol kg^−1 i.p. on day 1, 3 mmol kg^−1 i.p. twice daily on days 2-3) or vehicle. Drug doses and pre-treatment times were selected as noted above; ebselen (1 h), lithium (18 h). Groups of mice were acclimatised to a procedure room for 4 h prior to each experiment. […]
c-Fos, Arc and egr2 mRNA was measured on tissue sections using in situ hybridization (Jennings et al., 2008). […]
Optical density measurements were obtained from the autoradiograms using computer-based image analysis (MCID software). Optical density readings were converted in nCi g^−1 of tissue by calibration with the use of [^14C] microscales, which were co-exposed with the slides. […]

[3] = clinical trials for ischemic stroke (Yamaguchi et al 1998); cited from earlier work
5-HT synthesis = 5-HT synthesis (5-HTP accumulation after NSD1015); assay type: in vivo, mouse
Description: (§1) The level of 5-HT synthesis in frontal cortex and hippocampus was obtained by measuring the accumulation of 5-HTP following inhibition of aromatic amino acid decarboxylase. Mice (n=6 per group) were administered ebselen (0.5, 1 or 5 mg kg^−1 i.p.) or vehicle and 1 h later animals were injected with the aromatic amino acid decarboxylase inhibitor NSD1015 (100 mg kg^−1 i.p.). Mice were then culled by cervical dislocation 30 min following NSD1015 and brain tissue was removed and stored at −80° C. Separate experiments measured levels of 5-HT, 5-HIAA and tryptophan in cortex and hippocampus. Mice (n=6 per group) were administered ebselen (0.5, 1 or 5 mg kg^−1 i.p.) or vehicle and then culled by cervical dislocation 1 h post-drug. Brain tissue was dissected out and stored at −80° C. prior to neurochemical analysis.
(§2) On the day of neurochemical analysis, tissue pieces (˜20 mg) of frozen frontal cortex and hippocampus were placed in Eppendorf tubes containing 500 μl perchloric acid (0.09 M) and homogenised using a polytron kinetic homogeniser (15000 rpm for 10 sec). Tissue homogenates were then centrifuged (1000 rpm for 10 min) and the supernatant was transferred in a new Eppendorf tube, protected from light, and kept on ice before analysis using HPLC with electrochemical detection (see below).
(§3) Both mcrodialysates (20 μl) and brain tissue supernatants (50 μl) were analysed by an HPLC system, comprising a silica-based, reversed phase column (3.0 μm ODS2, 4.6 mm×100 mm, Waters Ltd) coupled to an electrochemical detector (glass carbon working electrode versus Ag/AgCl reference; LC-4C, Bioanalytical systems). For microdialysates, analytes were separated at room temperature by an isocratic mobile phase comprising 12.5% (v/v) methanol, 0.13 M NaHPO4.H2O, 0.025 mM octane sulphonic acid, 0.85 mM EDTA and 2 mM NaCl at pH 3.5, and with the working electrode set at +0.7 V.
(§4) For measurement of 5-HT, 5-HIAA and tryptophan in brain tissue supernatants, analytes were separated at room temperature by an isocratic mobile phase comprising an isocratic mix of 15% (v/v) methanol, 2 mM 1-octanesulphonic acid, 0.12 M NaHPO4.H2O, 2 mM NaCl, and 0.1 mM EDTA at pH 3.7 with the working electrode set at +0.85V. For measurement of 5-HTP the mobile phase was adjusted to pH 3.4.

[4] = rats; cited from earlier work
brain extracellular 5-HT = assay: Microdialysis, extracellular 5-HT in hippocampus; assay type: in vivo, mice
Description: The microdialysis probe was connected to a perfusion pump (CMA/100, CMA Microdialysis Ltd.) and perfused (2 μl min^−1) continuously with artificial CSF (140 mM NaCl, 3 mM KCl, 1.2 mM Na2HPO4, 0.27 mM NaH2PO4, 1 mM MgCl2, 2.4 mM CaCl2 and 7.2 mM glucose). After 2 h perfusate samples were collected every 20 min and analysed immediately by HPLC with electrochemical detection (see below).
Once 3 consecutive baseline samples were stable, mice received a single injection of ebselen (10 mg kg^−1 i.p.) or vehicle. Citalopram (5 mg kg^−1 i.p.) was administered 1 h later and dialysates were collected for a further 2 h. At the end of each experiment, brains were removed and probe placement was confirmed by histological examination.
as §3

[5] = reported in WO 2012/107735; cited from earlier work
[6] = system: 5-HT2A receptor binding sites; assay: Receptor autoradiography, [3H]-ketanserin binding sites in frontal cortex after treatment; assay type: in vivo, mouse
Description: The effect of ebselen and lithium treatment on the abundance of cortical 5-HT2A receptor binding sites was measured using receptor autoradiography. Mice were randomly allocated to one of the following treatments (6 mice per group); i) acute ebselen (10 mg kg^−1 i.p.) or vehicle, ii) repeated ebselen (10 mg kg^−1 i.p., twice daily for 7 days; last injection morning of the 8th day) or vehicle, and iii) repeated lithium (7 days; 10 mmol kg^−1 i.p. on day 1, 3 mmol kg^−1 i.p. twice daily on days 2-7) or vehicle.
Tissue sections (12 μm) were cryostat-cut at the level of the frontal cortex and stored in −80° C. On the day of the experiment, sections were incubated (at room temperature) in Tris-HCl buffer (0.17 M, pH 7.7) for 20 min, and then for 2 h with either 2 nM [^3H]-ketanserin (PerkinElmer) to determine total binding, or 2 nM [^3H]-ketanserin plus 10 μM methysergide to determine non-specific binding. Sections were then washed twice for 10 min with ice-cold 4° C. Tris-HCl buffer (0.17 M, pH 7.7), followed by double deionised water. Finally, slides were air-dried overnight before being exposed to autoradiographic films (BioMax MR, Kodak) for 12 weeks.
Optical density measurements were obtained from the autoradiograms as described above. […] Specific binding was calculated by subtracting non-specific binding from total binding. […]

[7] = Tissue levels of 5-HT, 5-HIAA and tryptophan; assay type: in vivo, mouse; settings: 1 h post-drug
Description: as §1, §2, §3, §4

5-HT2A receptor [8] = assay: Psilocin-evoked head-twitch response (HTR); assay type: in vivo, mice; settings: ebselen pretreatment; psilocin 2 mg kg^-1 i.p.
[9] = AR-A014418 10 or 20 mg kg^-1 i.p. pretreatment
[10] = acute ebselen 1, 5 or 10 mg kg^-1 i.p., DOI 2 mg kg^-1 i.p.
[11] = repeated ebselen 10 mg kg^-1 i.p. for 7 days
[12] = L-690,330 150 or 240 mg kg^-1 i.p. pretreatment

COc1ccc(CNC(=O)Nc2ncc([N+](=O)[O-])s2)cc1 [AR-A014418, N-[(4-methoxyphenyl)methyl]-N′-(5-nitro-2-thiazolyl) urea, reference compound]
DOI-induced ESR (5-HT2A receptor [1]; [9]): did not affect | DOI-induced HTR (5-HT2A receptor [1]; [9]): did not affect

COc1cc(CC(C)N)c(OC)cc1I (stereo not shown) [DOI, 1-(2,5-dimethoxy-4-iodophenyl)-propan-2-amine, reference compound]
Increase in IEG mRNA above vehicle-injected controls (5-HT2A receptor [2]; DOI 2 mg kg^-1 i.p., selected brain regions): 50-200%

O=c1c2ccccc2[se]n1-c1ccccc1 [Ebselen, 2-phenyl-1,2-benzisoselenazol-3(2H)-one]
Toxicity in humans at pharmaceutically effective dosages [3]: sufficiently non-toxic | DOI-evoked ESR (5-HT2A receptor [1]; [10]): dose-related decrease | DOI-evoked HTR (5-HT2A receptor [1]; [10]): dose-related decrease | Inhibitory effect on DOI-evoked ESR (5-HT2A receptor [1]; [11]): persisted | Inhibitory effect on DOI-evoked HTR (5-HT2A receptor [1]; [11]): persisted | 5-HTP Cortex (5-HT synthesis; ebselen 0.5 mg kg^-1 i.p.): 109.7 ± 10.6 % of vehicle | 5-HTP Hippocampus (5-HT synthesis; ebselen 0.5 mg kg^-1 i.p.): 87.9 ± 14.6 % of vehicle | 5-HTP Cortex (5-HT synthesis; ebselen 1 mg kg^-1 i.p.): 100.4 ± 3.7 % of vehicle | 5-HTP Hippocampus (5-HT synthesis; ebselen 1 mg kg^-1 i.p.): 95.6 ± 6.5 % of vehicle | 5-HTP Cortex (5-HT synthesis; ebselen 5 mg kg^-1 i.p.): 202.5 ± 15.0 % of vehicle | 5-HTP Hippocampus (5-HT synthesis; ebselen 5 mg kg^-1 i.p.): 152.6 ± 9.0 % of vehicle | LD50 [4]: greater than 1000 mg/kg | Effect of citalopram on extracellular 5-HT after ebselen pretreatment (brain extracellular 5-HT; ebselen 10 mg kg^-1 i.p. 1 h before citalopram 5 mg kg^-1 i.p., greatest effect 20-40 min post citalopram): enhanced | Extracellular 5-HT, ebselen alone (brain extracellular 5-HT; ebselen 10 mg kg^-1 i.p., vs vehicle-injected controls): no effect | Transfer across the blood/brain barrier [5]: capable of transferring across the blood/brain barrier | [^3H]-Ketanserin binding sites ([6]; acute ebselen 10 mg kg^-1 i.p. (2h), vehicle 4.33 ± 0.66): 3.36 ± 0.38 nCi g^-1 of tissue | [^3H]-Ketanserin binding sites ([6]; repeated ebselen 10 mg kg^-1 i.p. (7 days), vehicle 6.60 ± 0.27): 6.12 ± 0.63 nCi g^-1 of tissue | IEG responses to DOI (Arc, c-fos, egr-2 mRNA) (5-HT2A receptor [2]; ebselen 10 mg kg^-1 i.p., cingulate and somatosensory cortex (Arc, c-fos), caudate nucleus and endopiriform cortex (egr-2)): attenuated | 5-HIAA Cortex ([7]; ebselen 0.5 mg kg^-1 i.p.): 83.3 ± 14.4 % of vehicle | 5-HIAA Hippocampus ([7]; ebselen 0.5 mg kg^-1 i.p.): 129.8 ± 12.9 % of vehicle | 5-HT Cortex ([7]; ebselen 0.5 mg kg^-1 i.p.): 158.1 ± 14.7 % of vehicle | 5-HT Hippocampus ([7]; ebselen 0.5 mg kg^-1 i.p.): 234.4 ± 23.9 % of vehicle | Tryptophan Cortex ([7]; ebselen 0.5 mg kg^-1 i.p.): 105.0 ± 10.3 % of vehicle | Tryptophan Hippocampus ([7]; ebselen 0.5 mg kg^-1 i.p.): 210.2 ± 35.1 % of vehicle | 5-HIAA Cortex ([7]; ebselen 1 mg kg^-1 i.p.): 75.9 ± 6.3 % of vehicle | 5-HIAA Hippocampus ([7]; ebselen 1 mg kg^-1 i.p.): 141.0 ± 9.5 % of vehicle | 5-HT Cortex ([7]; ebselen 1 mg kg^-1 i.p.): 148.6 ± 11.2 % of vehicle | 5-HT Hippocampus ([7]; ebselen 1 mg kg^-1 i.p.): 225.9 ± 14.3 % of vehicle | Tryptophan Cortex ([7]; ebselen 1 mg kg^-1 i.p.): 122.7 ± 20.6 % of vehicle | Tryptophan Hippocampus ([7]; ebselen 1 mg kg^-1 i.p.): 128.5 ± 13.6 % of vehicle | 5-HIAA Cortex ([7]; ebselen 5 mg kg^-1 i.p.): 88.7 ± 3.8 % of vehicle | 5-HIAA Hippocampus ([7]; ebselen 5 mg kg^-1 i.p.): 139.2 ± 17.0 % of vehicle | 5-HT Cortex ([7]; ebselen 5 mg kg^-1 i.p.): 130.9 ± 4.8 % of vehicle | 5-HT Hippocampus ([7]; ebselen 5 mg kg^-1 i.p.): 189.4 ± 21.4 % of vehicle | Tryptophan Cortex ([7]; ebselen 5 mg kg^-1 i.p.): 131.9 ± 14.5 % of vehicle | Tryptophan Hippocampus ([7]; ebselen 5 mg kg^-1 i.p.): 135.4 ± 17.2 % of vehicle | Psilocin-induced HTR (5-HT2A receptor [8]): decreased

CC(Oc1ccc(O)cc1)(P(=O)(O)O)P(=O)(O)O [L-690,330, [1-(4-hydroxyphenoxy)ethylidene]bisphosphonic acid, reference compound]
DOI-evoked ESR (5-HT2A receptor [1]; [12]): decreased | DOI-evoked HTR (5-HT2A receptor [1]; [12]): decreased

CN(C)CCCC1(c2ccc(F)cc2)OCc2cc(C#N)ccc21 (stereo not shown) [citalopram, reference compound]
Peak increase of 5-HT in hippocampal microdialysates above pre-drug values (brain extracellular 5-HT; citalopram 5 mg kg^-1 i.p., 60 min post injection, awake mice): approximately 450%
